Experiment: mn = molality of the nth substance listed, in mol/kg
Conditions: 100 kPa, Liquid; for mass density: Vibrating tube method; for speed of sound: Frequency=2 MHz, Linear variable-path acoustic interferometer

CCCCn1cc[n+](C)c1.NCC(=O)[O-] [1-butyl-3-methylimidazolium glycinate] + O
Conditions	mass density [kg/m3]	speed of sound [m/s]
293.15 K, m1 = 0.03911	999.516	–
293.15 K, m1 = 0.05766	1000.13	–
293.15 K, m1 = 0.07571	1000.71	–
293.15 K, m1 = 0.09405	1001.28	–
293.15 K, m1 = 0.1177	1002.03	–
293.15 K, m1 = 0.1634	1003.42	–
293.15 K, m1 = 0.2013	1004.58	–
293.15 K, m1 = 0.2535	1006.13	–
293.15 K, m1 = 0.2905	1007.2	–
293.15 K, m1 = 0.3496	1008.89	–
293.15 K, m1 = 0.4089	1010.57	–
293.15 K, m1 = 0.4607	1012	–
293.15 K, m1 = 0.5188	1013.58	–
298.15 K, m1 = 0.03911	998.332	–
298.15 K, m1 = 0.05112	–	1505.2
298.15 K, m1 = 0.05766	998.92	–
298.15 K, m1 = 0.07571	999.491	–
298.15 K, m1 = 0.09405	1000.03	–
298.15 K, m1 = 0.1057	–	1512.8
298.15 K, m1 = 0.1177	1000.77	–
298.15 K, m1 = 0.1479	–	1518.7
298.15 K, m1 = 0.1634	1002.14	–
298.15 K, m1 = 0.1966	–	1525.4
298.15 K, m1 = 0.2013	1003.25	–
298.15 K, m1 = 0.2458	–	1531.5
298.15 K, m1 = 0.2535	1004.78	–
298.15 K, m1 = 0.2904	–	1537.8
298.15 K, m1 = 0.2905	1005.83	–
298.15 K, m1 = 0.3486	–	1545.1
298.15 K, m1 = 0.3496	1007.53	–
298.15 K, m1 = 0.4012	–	1551.1
298.15 K, m1 = 0.4089	1009.11	–
298.15 K, m1 = 0.4523	–	1557.8
298.15 K, m1 = 0.4607	1010.51	–
298.15 K, m1 = 0.5188	1012.11	–
298.15 K, m1 = 0.5271	–	1566.9
303.15 K, m1 = 0.03911	996.915	–
303.15 K, m1 = 0.05766	997.485	–
303.15 K, m1 = 0.07571	998.049	–
303.15 K, m1 = 0.09405	998.596	–
303.15 K, m1 = 0.1177	999.306	–
303.15 K, m1 = 0.1634	1000.64	–
303.15 K, m1 = 0.2013	1001.73	–
303.15 K, m1 = 0.2535	1003.2	–
303.15 K, m1 = 0.2905	1004.25	–
303.15 K, m1 = 0.3496	1005.87	–
303.15 K, m1 = 0.4089	1007.48	–
303.15 K, m1 = 0.4607	1008.89	–
303.15 K, m1 = 0.5188	1010.43	–
308.15 K, m1 = 0.03804	995.245	–
308.15 K, m1 = 0.05959	995.908	–
308.15 K, m1 = 0.07881	996.479	–
308.15 K, m1 = 0.09916	997.101	–
308.15 K, m1 = 0.1199	997.708	–
308.15 K, m1 = 0.1512	998.623	–
308.15 K, m1 = 0.206	1000.16	–
308.15 K, m1 = 0.2462	1001.31	–
308.15 K, m1 = 0.2873	1002.43	–
308.15 K, m1 = 0.359	1004.36	–
308.15 K, m1 = 0.3954	1005.3	–
308.15 K, m1 = 0.4498	1006.76	–
308.15 K, m1 = 0.5188	1008.59	–
313.15 K, m1 = 0.03949	993.444	–
313.15 K, m1 = 0.05959	994.046	–
313.15 K, m1 = 0.07881	994.62	–
313.15 K, m1 = 0.09916	995.217	–
313.15 K, m1 = 0.1199	995.816	–
313.15 K, m1 = 0.1512	996.706	–
313.15 K, m1 = 0.206	998.24	–
313.15 K, m1 = 0.2462	999.361	–
313.15 K, m1 = 0.2873	1000.45	–
313.15 K, m1 = 0.359	1002.39	–
313.15 K, m1 = 0.3954	1003.31	–
313.15 K, m1 = 0.4498	1004.72	–
313.15 K, m1 = 0.5188	1006.52	–

Source: the NIST ThermoML archive (doi:10.1016/j.jct.2014.07.026)
